Results: patent US20230129866A1 (PureTech LYT 100, Inc., priority 2020, published 2023)

How the values were obtained:
[1] = In vitro comparative mass balance and metabolite studies in liver microsomes; type: in vitro ADME, human, rat, dog, mouse, monkey
Source text: Both LYT-100 and pirfenidone share a common major metabolite.

L929 cells [2] = test: TGF-induced collagen synthesis in L929 cells, 6-wells (SIRCOL); type: cell-based; conditions: 72 hrs, FIG. 4B
Protocol: 100,000 L929 cells were plated in complete DMEN and incubated until confluency for 3 days. Medium was removed and complete DMEM containg Prolin ([…]) and ascorbic acid (10 μM) was added. […] Cells were further incubated for 72 hrs. Supernatant was removed, cells were washed with cold PBS, 1 ml SIRCOL reagent was added onto the cells and cells were scraped off, samples were shaken for 5 h.at RT, centrifuged at 10.000 rpm for 5 min, supernatant was removed, pellet was dissolved in 0.5 M acetic acid to remove unbound dye, and re-centrifuged at 10.000 rpm for 5 min, supernatant was removed and final pelet was dissolved in 1 ml 0.5M NaOH, shaken at RT for 5 h, 100 μl of resulted solution was placed in 96-well and O.D was determined at 600.

[3] = tested on: Primary Mouse Lung Fibroblasts (PMLF); test: Survival and TGF-β-induced proliferation of Primary Mouse Lung Fibroblasts (MTT); type: cell-based; conditions: 500 μM, 72 hrs, FIG. 3A
Protocol: Primary Mouse lung fibroblast were prepared as follows. One lung was removed from 2 months old male BaIbC Mouse, perfused with sterile PBS, minced and incubated in 2 ml of serum free Dulbecco's Modified Eagle's Medium (DMEM) containing 100 μg/ml of collagenase I for one hour at 37° C. Each sample was centrifuged at 1500 r.p.m (revolution per minute) for 5 minutes, washed three times with PBS and the final cellular pellet was resuspended in DMEM supplemented with 10% serum and Pen/Strep, and incubated in 150 mm plates at 37 °C with 80% humidity and […]. The growth medium was removed and fresh medium was added every day for 10 days.
At the end of 10-day incubation period above, lung fibroblasts were confluent. […] One hundred μL of the growth medium was removed and 20 μL of MTT stock solution (prepared in PBS at 5.5 mg/ml concentration) was added and cells were incubated for 4 hours, then 100 μl of DMSO was added, and absorbance of developed color was monitored at 540-690 nm.

NASH mice = test: Streptozotocin/high fat diet NASH mouse model: Sirius-red fibrosis area and NAFLD Activity Score; type: in vivo; conditions: n = 8
Source text: Non-alcoholic steatohepatitis (NASH) is characterized by lobular inflammation, hepatocyte ballooning and degeneration progressing to liver fibrosis. […] In addition, nine non-NASH mice were fed with a normal diet and monitored.
While LYT-100 hepatocyte ballooning was similar to Vehicle, scores were lower for lobular inflammation and steatosis. (Table 6 and 7).

[4] = rat, in vivo
Protocol: The original male TK animals received 1000 mg/kg of SD-559 on Day 1 and continued on study. The protocol was amended to add additional TK male animals in Group 6 for Day 1 collection of TK samples at 875 mg/kg.
Blood samples were collected from 3 subsets of 3 animals/sex on Day 1 and Day 28 at pre-dose, 0.25, 0.5, 1, 2, 4. 8 and 24 hours (hr) post-dose for groups 2 to 6 and from one subset of 3 animals/sex at 0.25 hr post-dose for the vehicle group (group 1). […] Non-compartmental analysis (NCA) of plasma concentration data was conducted using Phoenix® WinNonlin®, version 8.0.

L929 cells [5] = test: TGF-induced soluble collagen synthesis in L929 cells (ELISA); type: cell-based; conditions: 500 μM, 72 hrs, FIG. 4D
Protocol: Five thousand L929 cells were plated in complete DMEN and incubated until confluency for 3 days.

[6] = tested on: ICAM-1; vascular hyperpermeability; TGF-β and downstream signaling; test: Other studies for pirfenidone mechanisms in acute and chronic interstitial lung diseases
LPS-induced plasma IL-6 = LPS-induced plasma IL-6 after oral pretreatment in rats; type: in vivo, Sprague-Dawley rats; conditions: Mean ± St. Dev, n = 6-8; for Plasma IL-6 concentrations 4 hours after LPS: vehicle 13989 ± 6125; for Plasma IL-6 concentrations 1.5 hours after LPS: vehicle 40423 ± 8653
Protocol: (§1) LPS was diluted with sterile saline to […] and sonicated at 40° C. for 20 minutes to generate a stock solution and stored at 4° C. Each day of use, the stock solution was further diluted to 0.03 mg/mL in sterile saline.
(§2) Male Sprague-Dawley rats with indwelling femoral and jugular venous catheters (n=6-8 per dose and test article group) were used in this study. […] Sixty minutes after the oral dose, 0.03 mg/kg of LPS in 1 mL/kg saline was infused into the jugular vein.
(§3) Blood samples were collected from the femoral vein into heparin-coated syringes 15 minutes prior to the LPS infusion (45 minutes after oral doses of test article), 90 minutes after the LPS infusion and 4 hours after the LPS infusion. Plasma was prepared by centrifugation of the blood samples at 14,000 rpm for 10 minutes. Plasma samples were stored at −70 ° C. until analysis.

[7] = human, in vivo, po
Source text: Following screening, eligible healthy volunteer subjects were admitted to a single clinical study site and were randomized to 1 of 2 treatment sequences. […] In each period, a standardized breakfast was provided to subjects prior to administration of study drug (to compare the PK profiles in the clinically relevant fed state) and plasma samples were collected over a 48-hour period after dosing for evaluation of PK. Dosing between the 2 periods was separated by a minimum of 7 days. Subjects completed the study upon completion of the 48-hour post-dose assessments following dosing period 2.
All capsules were identical in size, shape, and external color.

L929 cells [8] = test: TGF-induced collagen synthesis in L929 cells, 96-well plate format (SIRCOL); type: cell-based; conditions: 72 hrs, FIG. 4C
Protocol: Five thousand L929 cells were plated in complete DMEN and incubated until confluency for 3 days. Medium was removed and complete DMEM containg Prolin (20 μg/ml) and ascorbic acid (10 μM) was added. […] Cells were further incubated for 72 hrs. Supernatant was removed, 0.5% glutaraldehyde was added for 30 min at RT, removed, washed 3× with ddwater, 0.5 M acetic acid was added for 30 min at RT, removed, washed with water, air dried and 100 μl SIRCOL dye was added for 5 h at RT. Dye was removed, plate was washed extensively under running water, air dried and 200 μl of 0.5 M NaOH was added, plates were shaken at RT for 1 h, and OD was determined at 600 nm.

LPS-induced plasma TNFα = test: LPS-induced plasma TNF-α after oral pretreatment in rats; type: in vivo, Sprague-Dawley rats; conditions: Mean ± St. Dev., n = 6-8; for Plasma TNFα concentrations 4 hours after LPS: vehicle 693 ± 553; for Plasma TNFα concentrations 1.5 hours after LPS: vehicle 75389 ± 29107
Protocol: as §1, §2, §3

L929 cells [9] = test: Survival of L929 cells (MTT); type: cell-based; conditions: 500 μM, TGFb 5 ng/ml, 72 hrs, FIG. 4A
Protocol: Five thousand L929 cells were plated in completed DMEN and incubated until confluency for 3 days. Medium was removed and complete DMEM containg Prolin (20 μg/ml) and ascorbic acid (10 μM) was added. […] 100 μL of medium was removed, 20 μL MTT solution was added for 4 hrs, then 100 μl of DMSO was added, and absorbance of developed dark pink color was determined at […].

[10] = 30 mg/kg oral pretreatment 1 hour prior to LPS injection
[11] = 100 mg/kg oral pretreatment 1 hour prior to LPS injection
[12] = 300 mg/kg oral pretreatment 1 hour prior to LPS injection

## [2H]C([2H])([2H])c1ccc(=O)n(-c2ccccc2)c1 [LYT-100, 5-(methyl-d3)-1-phenylpyridin-2-(1H)-one]
[1]; human, rat, dog, mouse, and monkey liver microsomes
  Novel metabolites through deuteration: did not introduce novel
[1]; liver microsomes
  Rate of metabolism compared with pirfenidone: occurred more slowly
L929 cells [2]; 500 μM 1 hour prior to TGF-β 5 ng/ml
  Effect on TGF-induced collagen synthesis: inhibits
L929 cells [2]; 500 μM
  Effect on collagen synthesis in the absence of added TGF-β: significantly inhibits
[3]
  Effect on survival of PMLF alone: did not affect the survival
NASH mice; NAS component, score 0 = <5%, LYT-100 30 mg/kg twice daily
  Steatosis score 0: number of animals: 4
NASH mice; NAS component, score 1 = 5-33%, LYT-100 30 mg/kg twice daily
  Steatosis score 1: number of animals: 3
NASH mice; NAS component, score 1 = <2 foci/200x, LYT-100 30 mg/kg twice daily
  Lobular Inflammation score 1: number of animals: 5
NASH mice; NAS component, score 2 = 2-4 foci/200x, LYT-100 30 mg/kg twice daily
  Lobular Inflammation score 2: number of animals: 3
NASH mice; NAS component, score 2 = >33%-66%, LYT-100 30 mg/kg twice daily
  Steatosis score 2: number of animals: 1
NASH mice; NAS component, score 2 = Many cells/prominent ballooning, LYT-100 30 mg/kg twice daily
  Hepatocyte ballooning score 2: number of animals: 8
NASH mice; Sirius-red stained liver sections, LYT-100 30 mg/kg orally twice daily from 6-9 weeks of age, p < 0.01 vs Vehicle (1.02 ± 0.20)
  Fibrosis Area (%) (mean ± SD): 0.64 ± 0.31 %
[4]
  Accumulation after multiple dosing for 28 Days: No accumulation
L929 cells [5]
  Effect on soluble collagen levels in the absence of TGF-β-induction: signficantly reduced
L929 cells [5]; TGF-β 5 ng/ml
  Effect on TGF-β-induced soluble collagen levels: significantly inhibits
[6]
  Effect on ICAM-1: downregulates
  Effect on TGF-β and downstream signaling: suppresses
  Effect on vascular hyperpermeability: reduces
LPS-induced plasma IL-6; [10]
  Plasma IL-6 concentrations 4 hours after LPS: 8174 ± 5504 pg/mL
  Plasma IL-6 concentrations 1.5 hours after LPS: 18197 ± 6484 pg/mL
LPS-induced plasma IL-6; [11]
  Plasma IL-6 concentrations 4 hours after LPS: 4632 ± 5930 pg/mL
  Plasma IL-6 concentrations 1.5 hours after LPS: 21642 ± 17174 pg/mL
LPS-induced plasma IL-6; [12]
  Plasma IL-6 concentrations 4 hours after LPS: 1550 ± 1414 pg/mL
  Plasma IL-6 concentrations 1.5 hours after LPS: 13519 ± 8674 pg/mL
[7]
  Tolerability of single doses: well tolerated
L929 cells [8]; 500 μM 1 h prior to TGF-β 5 ng/ml
  Effect on TGF-β-induced total collagen levels: inhibited or reduced
L929 cells [8]; 500 μM
  Effect on total collagen level in the absence of TGF-β induction: signficantly inhibited or reduced
LPS-induced plasma TNFα; [10]
  Plasma TNFα concentrations 4 hours after LPS: 274 ± 95 pg/mL
  Plasma TNFα concentrations 1.5 hours after LPS: 46382 ± 23254 pg/mL
LPS-induced plasma TNFα; [11]
  Plasma TNFα concentrations 4 hours after LPS: 129 ± 65 pg/mL
  Plasma TNFα concentrations 1.5 hours after LPS: 6403 ± 4812 pg/mL
LPS-induced plasma TNFα; [12]
  Plasma TNFα concentrations 4 hours after LPS: 79 ± 46 pg/mL
  Plasma TNFα concentrations 1.5 hours after LPS: 3162 ± 2668 pg/mL
L929 cells [9]
  Effect on survival of L929 cells: does not affect survival
